According to article PMC6063323, “Synthesis, radiosynthesis, in vitro and first in vivo evaluation of a new matrix metalloproteinase inhibitor based on γ-fluorinated α-sulfonylaminohydroxamic acid” (EJNMMI Radiopharmacy and Chemistry, 2018):
Like-named read-outs stand apart in the source and are kept apart here.

Experiments:
MMP-2 = details: cited from earlier work
MMP-9 = details: cited from earlier work
activated MMP-2 = target: T1, activated MMP-2 (Homo sapiens, UniProt P08253); test: fluorometric in vitro MMP-2 inhibition assay; format: biochemical; details: SD from three independent experiments; enzyme 2 nM, 37 °C, 30 min preincubation
T1 sequence (P08253 110-660): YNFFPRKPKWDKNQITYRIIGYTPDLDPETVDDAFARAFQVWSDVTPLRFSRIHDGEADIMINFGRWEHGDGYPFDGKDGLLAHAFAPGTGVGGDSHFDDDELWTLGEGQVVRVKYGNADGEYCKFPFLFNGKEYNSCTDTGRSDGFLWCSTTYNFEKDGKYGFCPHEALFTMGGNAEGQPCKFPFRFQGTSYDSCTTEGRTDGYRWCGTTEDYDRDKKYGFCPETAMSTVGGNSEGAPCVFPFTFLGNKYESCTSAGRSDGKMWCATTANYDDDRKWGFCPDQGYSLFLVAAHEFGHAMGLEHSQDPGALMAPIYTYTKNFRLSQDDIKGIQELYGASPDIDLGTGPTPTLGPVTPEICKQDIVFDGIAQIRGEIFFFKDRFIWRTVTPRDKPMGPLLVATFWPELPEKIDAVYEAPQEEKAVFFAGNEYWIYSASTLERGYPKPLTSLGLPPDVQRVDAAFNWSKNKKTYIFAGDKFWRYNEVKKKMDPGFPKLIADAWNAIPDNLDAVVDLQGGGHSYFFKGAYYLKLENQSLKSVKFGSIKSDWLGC
Protocol: (§1) The inhibition potencies of (R)-9a and (S)-9a against activated MMP-2 and -9 were assayed using the synthetic fluorometric substrate (7-methoxycoumarin-4-yl)acetyl-Pro-Leu-Gly-Leu-(3-(2,4-dinitrophenyl)-L-2,3-diaminopropionyl)Ala-Arg-NH2 (R&D Systems) as described previously (Huang et al. [1997]). Briefly, MMP-2 and -9 (each at 2 nM) and test compounds at varying concentrations (10 pM to 1 mM) in Tris (50 mM), pH 7.5, containing NaCl (0.2 M), CaCl2 (5 mM), ZnSO4 (20 μM), and 0.05% Brij 35 were preincubated at 37 °C for 30 min. An aliquot of substrate (10 μL of a 50 μM solution) was added to the enzyme inhibitor mixture (90 μL), and the fluorescence changes were monitored using a TriStar2 Multimode Reader LB 942, (Berthold) with excitation and emission wavelengths of 340 and 405 nm, respectively. Reaction rates were measured from the initial 10 min and plotted as a function of inhibitor concentration. From the resulting inhibition curves, the IC50 values were calculated by nonlinear regression analysis using the Grace 5.1.8 software (Linux).
(§2) The MMP inhibition potencies of the hydroxamic acids (R)-9a and (S)-9a (Fig. 2) against MMP-2 and -9 were measured by fluorometric in vitro inhibition assays, following the previously described procedure (Huang et al. [1997]).

activated MMP-9 = activated MMP-9 (Homo sapiens, UniProt P14780); test: fluorometric in vitro MMP-9 inhibition assay; format: biochemical; details: SD from three independent experiments; enzyme 2 nM, 37 °C, 30 min preincubation
Chain of activated MMP-9 (P14780 107-707 limits assumed): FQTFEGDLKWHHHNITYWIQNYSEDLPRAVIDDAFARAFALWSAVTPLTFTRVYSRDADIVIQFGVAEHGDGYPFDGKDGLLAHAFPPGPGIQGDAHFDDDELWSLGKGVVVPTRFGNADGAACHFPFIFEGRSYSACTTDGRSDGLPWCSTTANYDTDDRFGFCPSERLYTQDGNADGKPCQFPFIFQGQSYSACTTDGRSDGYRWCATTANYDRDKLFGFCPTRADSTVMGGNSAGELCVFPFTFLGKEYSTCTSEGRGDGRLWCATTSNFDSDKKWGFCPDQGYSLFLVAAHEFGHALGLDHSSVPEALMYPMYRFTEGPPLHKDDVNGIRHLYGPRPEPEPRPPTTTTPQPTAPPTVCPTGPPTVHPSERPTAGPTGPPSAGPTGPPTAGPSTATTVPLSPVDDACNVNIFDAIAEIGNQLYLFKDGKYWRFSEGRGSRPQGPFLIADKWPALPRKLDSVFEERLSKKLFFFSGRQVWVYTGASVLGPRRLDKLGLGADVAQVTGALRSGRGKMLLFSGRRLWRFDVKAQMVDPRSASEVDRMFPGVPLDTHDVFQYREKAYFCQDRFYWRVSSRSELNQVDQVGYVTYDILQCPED
Protocol: as §1, §2

[1] = design: method as in Wagner et al., [2011]; details: ref Wagner et al., [2011], cited from earlier work
[2] = water/octanol partition coefficient logD (exp.); format: physicochemical; details: for logD: 1-octanol/PBS pH 7.4, determined for (S)-[^18F]9a
Protocol: The lipophilicity of the radioligand (S)-[^18F]9a was assessed by determination of the water/octanol partition coefficients following a published procedure (Prante et al. [2006]). In brief, approximately 20 kBq of (S)-[^18F]9a were mixed with equal amounts (0.5 mL) of PBS (pH 7.4) and 1-octanol and the resulting biphasic system was mixed vigorously for 1 min at rt. The tubes were centrifuged (3000 rpm, 2 min) and 400 μL of the octanol phase were separated and again mixed with equal amounts (400 μL) of PBS. The resulting biphasic system was again mixed vigorously of 1 min at rt. After centrifugation (3000 rpm, 2 min) three samples of 100 μL of each layer were counted in a gamma counter (Wallac Wizard, Perkin-Elmer Life Science). The partition coefficient was determined by calculating the ratio cpm(octanol)/cpm(PBS) and expressed as logD (exp.) (log(cpmoctanol/cpmPBS)). Two independent experiments were performed in triplicate and data were provided as mean values ± standard deviation.
Radiosynthesis of the ^18F-labelled counterpart (S)-[^18F]9a was accomplished via direct nucleophilic substitution reaction of the tosylate precursor (S)-9b by [^18F]fluoride according to the synthesis described for [^18F]FEtO-CGS 25966 (Wagner et al. [2011]). The radiosynthesis provided (S)-[^18F]9a with radiochemical yields of 31–46% (n = 3), radiochemical purities of > 97% in 95–110 min from the end of radionuclide production and molar activities of 2.8–3.4 GBq/μmol after radiosynthesis. The experimental logD value of the radioligand was determined in phosphate-buffered saline (PBS) as already described (Prante et al. [2006]).

[3] = small animal PET in vivo biodistribution after intravenous injection; design: species or system C57/BL6 mice
Protocol: Adult C57/BL6 mice (male, 21–23 g) were anesthetized by isoflurane/O2, and one lateral tail vein was cannulated using a 27 Ga needle connected to 15 cm polyethylene catheter tubing. (S)-[^18F]9a (500 kBq/g bodyweight) was injected as a bolus (50 μL of compound flushed with 100 μL of saline) via the tail vein, and subsequent PET scanning was performed.
PET experiments were carried out using a sub-millimeter high resolution (0.7 mm full width at half maximum) small animal scanner (32 module quadHIDAC, Oxford Positron Systems Ltd., Oxford, UK) with uniform spatial resolution (< 1 mm) over a large cylindrical field (165 mm diameter, 280 mm axial length) (Schäfers et al. [2005]).
List-mode data were acquired for 120 min and reconstructed into dynamic time frames using an iterative reconstruction algorithm. Subsequently, the scanning bed was transferred to the computed tomography (CT) scanner (Inveon, Siemens Medical Solutions, U.S.) and a CT acquisition with a spatial resolution of 80 μm was performed for each mouse. Reconstructed image data sets were co-registered based on extrinsic markers attached to the multimodal scanning bed and the image analysis software (Inveon Research Workplace 3.0, Siemens Medical Solutions, USA). Three-dimensional volumes of interest (VOIs) were defined over the respective organs in CT data sets, transferred to the co-registered PET data and analyzed quantitatively. Regional uptake was calculated as percentage of injected dose by dividing counts per milliliter in the VOI by total counts in the mouse multiplied by 100 (%ID/mL). Routes of tracer elimination were assessed by VOI segmentation of kidneys and bladder (renal route), and liver, gall bladder, small and large intestine (hepatobiliary route). Total activity for each route was calculated as percentage of injected dose by dividing the total counts in the respective VOI by total counts in the mouse multiplied by 100 (%ID).
Maximum intensity projections (MIPs) of the whole body in vivo biodistribution of tracer-associated radioactivity in an adult C57/Bl6 mouse 0–2, 2–5, 5–10, 20–30 and 80–90 min after intravenous injection of (S)-[^18F]9a are shown in Fig. 3.

[4] = in vivo biostability and metabolism study (radio-HPLC of plasma, urine and tissue homogenates); design: species or system OCR (CD1) wild type mice; details: 30 min p.i., mouse
Protocol: Approximately 11.1 MBq (S)-[^18F]9a (in a maximum volume of 200 μL) was injected into three mice each via tail vein injection. The animals were sacrificed at 30 min p.i.. Whole blood was obtained, weighed, and centrifuged at 3000 rpm (3 min) to isolate plasma. Urine was also collected. The muscle, brain, kidneys, and liver were harvested and homogenized in lysis buffer (1% SDS in PBS buffer). An aliquot of each sample (400 μL) was subsequently removed, mixed with 400 μL of acetonitrile and 100 μL of 3% acetic acid in acetonitrile, vigorously mixed, and placed on dry ice for 3 min. After thawing, the samples were centrifuged at 13000 rpm (8 min) to allow for the separation of supernatant from the pellet. The supernatant was then removed and assayed for radioactivity in a PerkinElmer Wizard γ-counter (20 s). The samples were analyzed by HPLC, using a γ-detector (Raytest GmbH/Agilent). HPLC was done on a Phenomenex C18 column (250 mm × 4.6 mm) using a gradient method with acetonitrile and water (both having 0.05% TFA).
An in vivo biostability and metabolism study was performed in three 10-month old female OCR (CD1) wild type mice 30 min p.i.

[5] = Table 1, ref Mac Pherson et al. [1997], Scozzafava et al. 2000, Behrends et al. [2015], read-out: IC50 values MMP-2
[6] = Table 1, ref Mac Pherson et al. [1997], Scozzafava et al. 2000, Behrends et al. [2015], read-out: IC50 values MMP-9
[7] = ref Behrends et al., [2015], read-out: IC50 MMP-2
[8] = ref Behrends et al., [2015], read-out: IC50 MMP-9

SMILES: COc1ccc(S(=O)(=O)N(Cc2cccnc2)[C@H](CCF)C(=O)NO)cc1 [(R)-1]
- IC50 (MMP-2; [5]): 6.4 nM
- IC50 (MMP-9; [6]): 12.3 nM

SMILES: C=C(F)C[C@H](C(=O)NO)N(Cc1cccnc1)S(=O)(=O)c1ccc(OC)cc1 [(R)-2]
- IC50 (MMP-2; [5]): 9.3 nM
- IC50 (MMP-2; [7]): 9.3 ± 2 nM
- IC50 (MMP-9; [6]): 8.3 nM
- IC50 (MMP-9; [8]): 8.3 ± 0.1 nM

SMILES: C=C(F)C[C@H](C(=O)NO)N(Cc1ccccc1)S(=O)(=O)c1ccc(OCCF)cc1 [(R)-9a]
- IC50 (activated MMP-2): 10.4 ± 5.9 nM
- IC50 (activated MMP-9): 0.5 ± 0.3 nM

SMILES: COc1ccc(S(=O)(=O)N(Cc2cccnc2)[C@@H](C(=O)NO)C(C)C)cc1 [(R)-CGS 27023A]
- IC50 (MMP-2; [5]): 20 nM
- IC50 (MMP-9; [6]): 8 nM

SMILES: CC(C)[C@H](C(=O)NO)N(Cc1ccccc1)S(=O)(=O)c1ccc(OCCF)cc1 [(R)-FEtO- CGS 25966]
- logD (exp.) [1]: 2.02 ± 0.03
- logD (exp.) ([1]; listed as the analog derived from CGS 25966): 2.0
- IC50 (MMP-2; ref Wagner et al., [2011], read-out: IC50 MMP-2): 4 ± 3 nM
- IC50 (MMP-9; ref Wagner et al., [2011], read-out: IC50 MMP-9): 50 ± 27 nM

SMILES: COc1ccc(S(=O)(=O)N(Cc2cccnc2)[C@@H](CCF)C(=O)NO)cc1 [(S)-1]
- IC50 (MMP-2; [5]): 32.8 nM
- IC50 (MMP-9; [6]): 3 nM

SMILES: C=C(F)C[C@@H](C(=O)NO)N(Cc1cccnc1)S(=O)(=O)c1ccc(OC)cc1 [(S)-2]
- IC50 (MMP-2; [5]): 7.2 nM
- IC50 (MMP-2; [7]): 7.2 ± 0.1 nM
- IC50 (MMP-9; [6]): 4.9 nM
- IC50 (MMP-9; [8]): 4.9 ± 0.4 nM

SMILES: C=C(F)C[C@@H](C(=O)NO)N(Cc1ccccc1)S(=O)(=O)c1ccc(OCCF)cc1 [(S)-9a, (S)-2-[N-Benzyl-4-(2-fluoroethoxy)phenylsulfonamido]-4-fluoro-N-hydroxypent-4-enamide]
- IC50 (activated MMP-2): 0.3 ± 0.03 nM
- IC50 (activated MMP-9): 0.1 ± 0.01 nM
- logD [2]: 1.16 ± 0.2

SMILES: C=C(F)C[C@@H](C(=O)NO)N(Cc1ccccc1)S(=O)(=O)c1ccc(OCC[18F])cc1 [(S)-[^18F]9a, (S)-2-[N-Benzyl-4-(2-[^18F]fluoroethoxy)phenylsulfonamido]-4-fluoro-N-hydroxypent-4-enamide]
- logD [2]: 1.16
- hydrophilicity in comparison to [^18F]FEtO-CGS25966 ([2]; from experimental logD values): 7 times
- tracer remaining in non-excretion organs ([3]; 80–90 min p.i., mouse, i.v.): no significant tracer remaining
- injected tracer activity cleared from the blood and tissues ([3]; 90 min post injection): 73%
- defluorination in vivo (bone uptake of [^18F]fluoride ions) ([3]; entire dynamic imaging study, mouse): not observed
- accumulation in brain, myocardium, lung and muscles (unspecific binding) ([3]; mouse, i.v., PET): not observed
- clearance of tracer and metabolites by renal excretion ([3]; mouse, i.v., PET): 8%
- clearance of tracer and metabolites through the liver and the gallbladder ([3]; mouse, i.v., PET): 92%
- extent of metabolism in plasma (into four metabolites) [4]: about 92%
- extent of metabolism in plasma, kidneys, urine, muscle and brain [4]: about 90%
- share of radioactivity in brain ([4]; radio-HPLC): 12 % HPLC
- share of radioactivity in kidney ([4]; radio-HPLC): 17 % HPLC
- share of radioactivity in liver ([4]; radio-HPLC): 1 % HPLC
- share of radioactivity in muscle ([4]; radio-HPLC): 17 % HPLC
- share of radioactivity in plasma ([4]; radio-HPLC): 8 % HPLC
- metabolism of the parent compound in urine ([4]; to four polar metabolites): complete metabolism
